Tests used:
CYP74D1 [1] = molecular target: T1, CYP74D1 (Solanum lycopersicum, UniProt Q9FPM6); assay: Kinetic assays with affinity purified CYP74D-6H (decrease in A234); conditions: for estimated turnover rate (kcat): purified CYP74D-6H, assuming the total protein content to be active; for Km: read-out: apparent Km, recombinant DES (summary in description)
T1 sequence (Q9FPM6 whole entry): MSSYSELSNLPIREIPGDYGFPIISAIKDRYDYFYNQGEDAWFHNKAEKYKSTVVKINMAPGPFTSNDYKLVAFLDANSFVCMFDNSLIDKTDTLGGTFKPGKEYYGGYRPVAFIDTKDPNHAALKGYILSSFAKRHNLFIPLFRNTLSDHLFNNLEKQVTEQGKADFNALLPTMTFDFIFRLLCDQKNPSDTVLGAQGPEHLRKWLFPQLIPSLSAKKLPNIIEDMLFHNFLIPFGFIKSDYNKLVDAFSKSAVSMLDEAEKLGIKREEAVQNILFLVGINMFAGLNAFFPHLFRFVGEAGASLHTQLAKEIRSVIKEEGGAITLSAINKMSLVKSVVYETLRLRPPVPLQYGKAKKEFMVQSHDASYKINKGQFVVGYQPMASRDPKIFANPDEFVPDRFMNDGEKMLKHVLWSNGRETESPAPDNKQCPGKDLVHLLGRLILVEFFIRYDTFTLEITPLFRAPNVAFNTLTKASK

CYP74D1 [2] = molecular target: T2, CYP74D1 (Solanum lycopersicum, UniProt Q9FPM6)
T2 sequence (Q9FPM6 10-478 limits assumed): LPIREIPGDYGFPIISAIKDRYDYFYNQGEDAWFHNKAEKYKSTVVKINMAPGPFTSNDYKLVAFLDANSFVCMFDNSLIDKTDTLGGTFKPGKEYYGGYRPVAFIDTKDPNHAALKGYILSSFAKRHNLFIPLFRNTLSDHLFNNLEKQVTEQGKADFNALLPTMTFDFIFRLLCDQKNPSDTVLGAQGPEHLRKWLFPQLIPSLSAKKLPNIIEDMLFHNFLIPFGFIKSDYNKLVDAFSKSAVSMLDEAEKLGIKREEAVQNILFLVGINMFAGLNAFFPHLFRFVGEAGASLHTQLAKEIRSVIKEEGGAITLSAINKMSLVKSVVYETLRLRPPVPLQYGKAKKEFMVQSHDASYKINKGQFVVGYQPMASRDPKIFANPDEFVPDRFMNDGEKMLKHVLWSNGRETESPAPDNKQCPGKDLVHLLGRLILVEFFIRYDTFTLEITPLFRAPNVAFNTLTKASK

CYP74D1 [3] = molecular target: T1, CYP74D1; remark: listed apart in the source

Compound	estimated turnover rate (kcat) (CYP74D1 [1])	Km (CYP74D1 [1])	metabolism by extracts containing 6H-CYP74D (in words) (CYP74D1 [2])	metabolized at % of the rate observed for 9-HPOD (CYP74D1 [3])
CCCCC/C=C\C=C\[C@H](CCCCCCCC(=O)O)OO [9-HPOD, 9(S)-hydroperoxy-10(E),12(Z)-octadecadienoic acid]	890 s⁻¹	~67 µM	efficiently metabolized	–
CC/C=C\C/C=C\C=C\[C@H](CCCCCCCC(=O)O)OO [9-HPOT, 9(S)-hydroperoxy-10(E),12(Z),15(Z)-octadecatrienoic acid]	500 s⁻¹	~48 µM	efficiently metabolized	–
CCCCC[C@@H](/C=C/C=C\CCCCCCCC(=O)O)OO [13-HPOD, 13(S)-hydroperoxy-9(Z),11(E)-octadecadienoic acid]	–	–	poor substrates	–
CC/C=C\C[C@@H](/C=C/C=C\CCCCCCCC(=O)O)OO [13-HPOT, 13(S)-hydroperoxy-9(Z),11(E),15(Z)-octadecatrienoic acid]	–	–	poor substrates	< 5%
